The source made the active and inactive calls. The rule behind the calls is not given here.

The record followed here is ChEMBL document CHEMBL4715701, “A new chromanone derivative isolated from Hypericum lissophloeus (Hypericaceae) potentiates GABAA receptor currents in a subunit specific fashion” (Bioorg Med Chem, 2016).

Test [1] concerns the target T1, GABA-A receptor; alpha-1/beta-2/gamma-2 (Homo sapiens) (UniProt P14867+P47870+P18507). The test can be described thus: Allosteric modulation of GABAA alpha1beta2gamma2 (unknown origin) expressed in Xenopus oocytes assessed as potentiation of GABA-induced current response at 3 uM at -80 mV holding potential incubated for 3 mins by two electrode voltage clamp method. Conditions: Oocyte, filed as positive allosteric modulator. It counts as cell-based. (In two-electrode clamp one electrode senses voltage and the other passes current.)

Test [2] relates to Oocyte. The test can be described thus: Allosteric modulation of GABAA alpha1beta2gamma2S280I mutant (unknown origin) expressed in Xenopus oocytes assessed as potentiation of GABA-induced current response at 3 uM at -80 mV holding potential incubated for 3 mins by two electrode voltage clamp method. In kind it is cell-based. The conditions noted are these: Homo sapiens.
For test [3], the target named is T2, GABA-A receptor; alpha-1/beta-2/gamma-2 (Homo sapiens, UniProt P14867+P18507+P47870).
T2 sequence (P14867 whole entry): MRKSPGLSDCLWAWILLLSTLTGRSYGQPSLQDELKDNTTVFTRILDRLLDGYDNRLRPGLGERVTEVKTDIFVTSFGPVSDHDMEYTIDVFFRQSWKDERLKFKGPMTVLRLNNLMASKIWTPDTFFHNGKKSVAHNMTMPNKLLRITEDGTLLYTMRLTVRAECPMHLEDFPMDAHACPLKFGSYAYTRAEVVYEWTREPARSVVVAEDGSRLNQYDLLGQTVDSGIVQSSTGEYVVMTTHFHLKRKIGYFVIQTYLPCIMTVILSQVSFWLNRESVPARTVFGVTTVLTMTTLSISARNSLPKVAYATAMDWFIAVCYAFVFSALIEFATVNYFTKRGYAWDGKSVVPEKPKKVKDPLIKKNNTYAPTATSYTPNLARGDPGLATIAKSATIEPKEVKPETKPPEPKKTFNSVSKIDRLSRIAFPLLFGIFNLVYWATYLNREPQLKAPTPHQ
T2 sequence (P47870 whole entry): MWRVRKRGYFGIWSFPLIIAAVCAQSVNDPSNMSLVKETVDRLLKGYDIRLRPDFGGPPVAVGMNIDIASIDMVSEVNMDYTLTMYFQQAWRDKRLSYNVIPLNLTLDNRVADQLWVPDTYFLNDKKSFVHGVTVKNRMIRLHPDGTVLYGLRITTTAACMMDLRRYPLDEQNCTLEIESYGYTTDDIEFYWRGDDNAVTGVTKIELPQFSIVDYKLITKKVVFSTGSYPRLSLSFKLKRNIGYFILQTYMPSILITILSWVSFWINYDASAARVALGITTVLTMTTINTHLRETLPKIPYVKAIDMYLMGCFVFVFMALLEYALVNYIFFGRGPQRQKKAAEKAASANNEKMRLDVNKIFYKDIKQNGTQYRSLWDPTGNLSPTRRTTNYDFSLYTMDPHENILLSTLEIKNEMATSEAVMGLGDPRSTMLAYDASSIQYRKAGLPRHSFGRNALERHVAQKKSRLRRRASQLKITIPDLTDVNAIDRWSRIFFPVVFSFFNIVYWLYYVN
T2 sequence (P18507 whole entry): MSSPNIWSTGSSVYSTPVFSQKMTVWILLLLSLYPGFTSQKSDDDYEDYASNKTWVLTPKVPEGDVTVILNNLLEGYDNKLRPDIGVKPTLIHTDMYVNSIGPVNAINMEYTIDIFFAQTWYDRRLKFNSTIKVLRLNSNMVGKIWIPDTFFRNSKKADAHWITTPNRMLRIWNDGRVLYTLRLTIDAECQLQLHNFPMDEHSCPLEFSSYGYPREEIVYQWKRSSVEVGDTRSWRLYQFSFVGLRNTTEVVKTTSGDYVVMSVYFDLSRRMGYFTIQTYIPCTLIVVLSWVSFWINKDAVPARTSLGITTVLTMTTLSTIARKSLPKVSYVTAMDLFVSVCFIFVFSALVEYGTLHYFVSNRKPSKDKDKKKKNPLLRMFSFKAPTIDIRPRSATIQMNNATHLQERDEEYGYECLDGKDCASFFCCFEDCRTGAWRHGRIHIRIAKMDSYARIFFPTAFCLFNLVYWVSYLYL
The test can be described thus: Allosteric modulation of GABAA alpha1beta2gamma2 (unknown origin) expressed in Xenopus oocytes assessed as potentiation of GABA-induced current response at -80 mV holding potential incubated for 3 mins by two electrode voltage clamp method. It counts as cell-based, Oocyte.

Test [4] has as its target T1, GABA-A receptor; alpha-1/beta-2/gamma-2 (Homo sapiens). The test can be described thus: Allosteric modulation of GABAA alpha1beta2gamma2 (unknown origin) expressed in Xenopus oocytes assessed as potentiation of GABA-induced current response at 3 uM at -80 mV holding potential incubated for 3 mins by two electrode voltage clamp method relative to control. The conditions noted are these: Oocyte, filed as positive allosteric modulator. In kind it is cell-based.

For test [5] the target is unchanged. The test can be described thus: Allosteric modulation of GABAA alpha1beta2gamma2 (unknown origin) expressed in Xenopus oocytes assessed as potentiation of GABA-induced current response at 0.1 uM at -80 mV holding potential incubated for 3 mins by two electrode voltage clamp method relative to control. It counts as cell-based. The conditions noted are these: Oocyte, filed as positive allosteric modulator.

Test [6] deals with GABA-A receptor; alpha-1/beta-3/gamma-2 (Homo sapiens) (UniProt P14867+P18507+P28472). Nature of the test: Allosteric modulation of GABAA alpha1beta3gamma2 (unknown origin) expressed in Xenopus oocytes assessed as potentiation of GABA-induced current response at 3 uM at -80 mV holding potential incubated for 3 mins by two electrode voltage clamp method. Conditions: Oocyte, filed as positive allosteric modulator. In kind it is cell-based.

In test [7] the test system is Oocyte. The test can be described thus: Allosteric modulation of GABAA alpha6beta2gamma2 (unknown origin) expressed in Xenopus oocytes assessed as potentiation of GABA-induced current response at 3 uM at -80 mV holding potential incubated for 3 mins by two electrode voltage clamp method. The conditions noted are these: Homo sapiens, filed as positive allosteric modulator. It counts as cell-based.

Test [8] concerns the target Gamma-aminobutyric acid receptor subunit alpha-1/beta-2/delta (Homo sapiens) (UniProt P14867+P47870+O14764). Nature of the test: Allosteric modulation of GABAA alpha1beta2delta (unknown origin) expressed in Xenopus oocytes assessed as potentiation of GABA-induced current response at 3 uM at -80 mV holding potential incubated for 3 mins by two electrode voltage clamp method. It counts as cell-based. Conditions: Oocyte, filed as positive allosteric modulator.

Test [9] has as its system Oocyte. The test can be described thus: Allosteric modulation of GABAA alpha1beta2N265Igamma2 mutant (unknown origin) expressed in Xenopus oocytes assessed as potentiation of GABA-induced current response at 3 uM at -80 mV holding potential incubated for 3 mins by two electrode voltage clamp method. It counts as cell-based. The conditions noted are these: Homo sapiens.

Test [10] has as its system Oocyte. The test can be described thus: Allosteric modulation of GABAA alpha3beta2gamma2 (unknown origin) expressed in Xenopus oocytes assessed as potentiation of GABA-induced current response at 3 uM at -80 mV holding potential incubated for 3 mins by two electrode voltage clamp method. In kind it is cell-based. The conditions noted are these: Homo sapiens, filed as positive allosteric modulator.

The target in test [11] is GABA A receptor alpha-1/beta-1/gamma-2 (Homo sapiens) (UniProt P14867+P18507+P18505). The test can be described thus: Allosteric modulation of GABAA alpha1beta1gamma2 (unknown origin) expressed in Xenopus oocytes assessed as potentiation of GABA-induced current response at 3 uM at -80 mV holding potential incubated for 3 mins by two electrode voltage clamp method. In kind it is cell-based. Conditions: Oocyte, filed as positive allosteric modulator.

The target in test [12] is Gamma-aminobutyric acid receptor subunit alpha-5/beta-2/gamma-2 (Homo sapiens) (UniProt P47870+P18507+P31644). The test can be described thus: Allosteric modulation of GABAA alpha5beta2gamma2 (unknown origin) expressed in Xenopus oocytes assessed as potentiation of GABA-induced current response at 3 uM at -80 mV holding potential incubated for 3 mins by two electrode voltage clamp method. It counts as cell-based. The conditions noted are these: Oocyte, filed as positive allosteric modulator.

Test [13] has as its target T1, GABA-A receptor; alpha-1/beta-2/gamma-2 (Homo sapiens). Nature of the test: Allosteric modulation of GABAA alpha1beta2gamma2 (unknown origin) expressed in Xenopus oocytes at 3 uM at -80 mV holding potential incubated for 3 mins by two electrode voltage clamp method relative to control. The conditions noted are these: Oocyte. It counts as cell-based.
Test [14] has as its system Oocyte. The test can be described thus: Allosteric modulation of GABAA alpha2beta2gamma2 (unknown origin) expressed in Xenopus oocytes assessed as potentiation of GABA-induced current response at 3 uM at -80 mV holding potential incubated for 3 mins by two electrode voltage clamp method. In kind it is cell-based. Conditions: Homo sapiens, filed as positive allosteric modulator.

Test [15] concerns Oocyte. Nature of the test: Allosteric modulation of GABAA alpha1S269Ibeta2N265Igamma2S280I mutant (unknown origin) expressed in Xenopus oocytes assessed as potentiation of GABA-induced current response at 3 uM at -80 mV holding potential incubated for 3 mins by two electrode voltage clamp method. It counts as cell-based. Conditions: Homo sapiens.
The species entered for test [16] is Homo sapiens. Nature of the test: Allosteric modulation of GABA(A)/BzR (unknown origin) assessed as potentiation of GABA-induced current response at 3 uM relative to control. Conditions: filed as positive allosteric modulator.
Test [17] addresses T1, GABA-A receptor; alpha-1/beta-2/gamma-2 (Homo sapiens). Nature of the test: Allosteric modulation of GABAA alpha1beta2gamma2 (unknown origin) expressed in Xenopus oocytes assessed as potentiation of GABA-induced current response at 30 uM at -80 mV holding potential incubated for 3 mins by two electrode voltage clamp method. It counts as cell-based. The conditions noted are these: Oocyte, filed as positive allosteric modulator.

For test [18] the target is unchanged. Nature of the test: Allosteric modulation of GABAA alpha1beta2gamma2 (unknown origin) expressed in Xenopus oocytes assessed as potentiation of GABA-induced current response at -80 mV holding potential incubated for 3 mins by two electrode voltage clamp method relative to control. The conditions noted are these: Oocyte, filed as positive allosteric modulator. It counts as cell-based.

Test [19] shares this target. Nature of the test: Allosteric modulation of GABAA alpha1beta2gamma2 (unknown origin) expressed in Xenopus oocytes assessed as potentiation of GABA-induced current response at 10 uM at -80 mV holding potential incubated for 3 mins by two electrode voltage clamp method. It counts as cell-based. The conditions noted are these: Oocyte, filed as positive allosteric modulator.

For test [20], the system named is Oocyte. The test can be described thus: Allosteric modulation of GABAA alpha1S269Ibeta2gamma2 mutant (unknown origin) expressed in Xenopus oocytes assessed as potentiation of GABA-induced current response at 3 uM at -80 mV holding potential incubated for 3 mins by two electrode voltage clamp method. In kind it is cell-based. The conditions noted are these: Homo sapiens.

Test [21] in a line: Ex vivo inhibition of synaptosomal serotonin re-uptake 100 uM. It counts as functional, subcellular. Conditions: Synaptosome.
Test [22] in a line: Ex vivo inhibition of synaptosomal serotonin re-uptake 10 to 100 uM relative to control. In kind it is functional, subcellular. The conditions noted are these: Synaptosome; dose 10-100 µM.

What is called EC50 is the concentration giving half of the maximal effect. By inhibition is commonly meant the drop in the measured response relative to a control, in per cent. Regarding `CC(C)=CCc1c(O)cc2c(c1O)C(=O)[C@H](C)[C@@H](C)O2`, the outcome in test [1], in test [6], in [7], in test [8], in [10] and in test [11] was Active. For the same molecule, the result in test [12], in test [14], in [17] and in [19] was Active. Moreover, the outcome in [2], in test [9], in test [15] and in [20] was inactive. Besides, the EC50 in test [3] came out at 4.5 µM. Further, the Activity was 3830% in test [4]; 60% in test [5]; 0.71% in test [13]; 459% in [16]; 4430% in test [18]. The inhibition entry in test [21] is “inactive”.
For the molecule `CN1C(=O)CN=C(c2ccccc2)c2cc(Cl)ccc21`, the Activity in test [5] was more than 200%.
With `CC(C)=CCC[C@]1(C)[C@@H](CC=C(C)C)C[C@]2(CC=C(C)C)C(=O)C(CC=C(C)C)=C(O)[C@@]1(C(=O)C(C)C)C2=O`, the inhibition in test [22] came out at 100%.
